SMILES strings stand for the structures.

In patent publication US9611269B2, “Azetidinyl phenyl, pyridyl or pyrazinyl carboxamide derivatives as JAK inhibitors” (Incyte Corporation, priority 2011, dated 2017) one finds IC50 and JAK2/JAK1 data, which are given here for 20 compounds.

Format in all cases: biochemical
For assay [1], the target named is human JAK2 (a.a. 828-1132) catalytic domain (Homo sapiens (Human), UniProt O60674). In words: In vitro JAK kinase assay (HTRF, 1 mM ATP), JAK2. Conditions: at 1 mM ATP.
Chain of human JAK2 (a.a. 828-1132) catalytic domain (O60674 828-1132): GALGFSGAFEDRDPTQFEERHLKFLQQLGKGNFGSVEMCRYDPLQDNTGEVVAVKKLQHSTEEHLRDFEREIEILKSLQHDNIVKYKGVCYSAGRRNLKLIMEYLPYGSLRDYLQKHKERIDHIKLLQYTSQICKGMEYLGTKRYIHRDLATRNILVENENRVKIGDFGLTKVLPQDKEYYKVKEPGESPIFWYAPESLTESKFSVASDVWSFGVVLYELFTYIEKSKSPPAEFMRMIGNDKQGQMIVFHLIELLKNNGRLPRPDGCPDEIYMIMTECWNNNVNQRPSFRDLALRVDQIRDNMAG
Description: (§1) The catalytic activity of JAK1, JAK2 or JAK3 was assayed by measuring the phosphorylation of a biotinylated peptide. The phosphorylated peptide was detected by homogenous time resolved fluorescence (HTRF). […] Reactions were carried out at room temperature for 1 hour and then stopped with 20 μL 45 mM EDTA, 300 nM SA-APC, 6 nM Eu-Py20 in assay buffer (Perkin Elmer, Boston, Mass.). Binding to the Europium labeled antibody took place for 40 minutes and HTRF signal was measured on a Fusion plate reader (Perkin Elmer, Boston, Mass.).
For assay [2], the target named is human JAK1 (a.a. 837-1142) catalytic domain (Homo sapiens, UniProt P23458). In words: In vitro JAK kinase assay (HTRF, 1 mM ATP), JAK1.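 Also: kinase activity followed as phosphorylation of a biotin-tagged peptide, detected by HTRF with Eu-labelled anti-phosphotyrosine antibody and SA-APC, after 1 h reaction at room temperature.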 To be noted: at 1 mM ATP. A general note: TR-FRET usually uses a lanthanide donor and a delayed reading to cut background.
Chain of human JAK1 (a.a. 837-1142) catalytic domain (Homo sapiens, UniProt P23458) (P23458 whole entry, looked up, the tested form may be a part): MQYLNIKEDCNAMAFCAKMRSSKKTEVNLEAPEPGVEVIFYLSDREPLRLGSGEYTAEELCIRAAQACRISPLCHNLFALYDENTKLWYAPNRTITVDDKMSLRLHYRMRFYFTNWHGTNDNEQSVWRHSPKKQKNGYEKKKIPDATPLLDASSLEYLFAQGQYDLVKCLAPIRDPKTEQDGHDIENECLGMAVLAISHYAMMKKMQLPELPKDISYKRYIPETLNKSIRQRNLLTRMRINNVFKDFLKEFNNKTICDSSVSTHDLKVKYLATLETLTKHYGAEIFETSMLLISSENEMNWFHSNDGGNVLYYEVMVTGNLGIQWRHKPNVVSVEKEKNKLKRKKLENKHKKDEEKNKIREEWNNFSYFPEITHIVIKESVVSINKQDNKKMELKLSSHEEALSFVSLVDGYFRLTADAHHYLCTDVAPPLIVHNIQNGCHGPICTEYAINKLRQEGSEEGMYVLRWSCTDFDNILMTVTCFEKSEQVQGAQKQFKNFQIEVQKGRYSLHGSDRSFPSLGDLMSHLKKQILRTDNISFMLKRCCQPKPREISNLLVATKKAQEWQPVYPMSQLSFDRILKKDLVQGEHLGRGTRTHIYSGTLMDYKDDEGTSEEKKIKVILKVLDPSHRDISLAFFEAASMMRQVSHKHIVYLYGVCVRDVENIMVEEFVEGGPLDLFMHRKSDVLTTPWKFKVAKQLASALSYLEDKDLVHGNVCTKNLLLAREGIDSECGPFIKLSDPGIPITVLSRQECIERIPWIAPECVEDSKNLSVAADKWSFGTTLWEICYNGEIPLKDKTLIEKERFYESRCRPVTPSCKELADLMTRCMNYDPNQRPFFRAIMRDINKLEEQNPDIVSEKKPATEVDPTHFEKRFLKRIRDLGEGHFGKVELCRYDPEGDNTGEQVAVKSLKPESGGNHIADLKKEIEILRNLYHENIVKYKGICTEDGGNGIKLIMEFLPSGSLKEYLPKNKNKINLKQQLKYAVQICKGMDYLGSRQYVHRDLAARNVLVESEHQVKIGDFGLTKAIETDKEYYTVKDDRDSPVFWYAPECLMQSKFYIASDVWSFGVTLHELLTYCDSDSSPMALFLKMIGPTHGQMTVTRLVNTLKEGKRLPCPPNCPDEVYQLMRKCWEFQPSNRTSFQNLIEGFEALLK
Description: as §1
Assay [3] deals with human JAK1 (a.a. 837-1142) catalytic domain. Kind of assay: In vitro JAK kinase assay (HTRF, 1 mM ATP), JAK1.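 Also: kinase activity followed as phosphorylation of a biotin-tagged peptide, detected by HTRF with Eu-labelled anti-phosphotyrosine antibody and SA-APC, after 1 h reaction at room temperature.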 Conditions: ratio of JAK2 IC50 to JAK1 IC50 at 1 mM ATP.
Description: as §1

As a reminder, the IC50 is the concentration at which inhibition is half-maximal. A higher IC50 goes with weaker potency in that assay. As for `CC(NC(=O)c1ccc(N2CC(CC#N)(n3cc(-c4ncnc5[nH]ccc45)cn3)C2)cc1)C1CCN(C)CC1` (stereo not drawn) [Example 20, 4-{3-(Cyanomethyl)-3-[4-(7H-pyrrolo[2,3-d]pyrimidin-4-yl)-1H-pyrazol-1-yl]azetidin-1-yl}-N-[1-(1-methylpiperidin-4-yl)ethyl]benzamide], the figures for the IC50 in assay [1] and in assay [2] were 10 to 40 nM and under 10 nM, respectively. Also, the JAK2/JAK1 result in assay [3] was “A (A means greater than or equal to 10)”.
In the case of `C[C@@H](NC(=O)c1cc(F)c(N2CC(CC#N)(n3cc(-c4ncnc5[nH]ccc45)cn3)C2)cc1F)C1CC1` [Example 21, 4-{3-(Cyanomethyl)-3-[4-(7H-pyrrolo[2,3-d]pyrimidin-4-yl)-1H-pyrazol-1-yl]azetidin-1-yl}-N-[(1R)-1-cyclopropylethyl]-2,5-difluorobenzamide], the IC50 in assay [1] is at most 10 nM; in assay [2] it was under 10 nM. In addition, in assay [3], the JAK2/JAK1 entry was “A (A means greater than or equal to 10)”.
Consider `C[C@H](NC(=O)c1ccc(N2CC(CC#N)(n3cc(-c4ncnc5[nH]ccc45)cn3)C2)cc1F)C(F)(F)F` [Example 22, 4-{3-(Cyanomethyl)-3-[4-(7H-pyrrolo[2,3-d]pyrimidin-4-yl)-1H-pyrazol-1-yl]azetidin-1-yl}-2-fluoro-N-[(1S)-2,2,2-trifluoro-1-methylethyl]benzamide], for which the IC50 was 10 to 40 nM in assay [1] and under 10 nM in assay [2]. Besides, the JAK2/JAK1 entry in assay [3] is on record as “A (A means greater than or equal to 10)”.
The matching figures for `CCNC(=O)c1ccc(N2CC(CC#N)(n3cc(-c4ncnc5[nH]ccc45)cn3)C2)cn1` [Example 24, 5-{3-(Cyanomethyl)-3-[4-(7H-pyrrolo[2,3-d]pyrimidin-4-yl)-1H-pyrazol-1-yl]azetidin-1-yl}-N-ethylpyridine-2-carboxamide]: at most 10 nM, under 10 nM and “A (A means greater than or equal to 10)”.
Turning to `CC[C@@H](C)NC(=O)c1ccc(N2CC(CC#N)(n3cc(-c4ncnc5[nH]ccc45)cn3)C2)cc1` [Example 25, 4-{3-(Cyanomethyl)-3-[4-(7H-pyrrolo[2,3-d]pyrimidin-4-yl)-1H-pyrazol-1-yl]azetidin-1-yl}-N-[(1R)-1-methylpropyl]benzamide bis(trifluoroacetate)], the IC50 in assay [1] was at most 10 nM; in assay [2], under 10 nM. Further, the JAK2/JAK1 entry in assay [3] is on record as “A (A means greater than or equal to 10)”.
On to `CC(C)NC(=O)c1ccc(N2CC(CC#N)(n3cc(-c4ccnc5[nH]ccc45)cn3)C2)c(F)c1` [Example 27, 4-{3-(Cyanomethyl)-3-[4-(1H-pyrrolo[2,3-b]pyridin-4-yl)-1H-pyrazol-1-yl]azetidin-1-yl}-3-fluoro-N-isopropylbenzamide], for which the IC50 is at most 10 nM in assay [1] and under 10 nM in assay [2]. Besides, the JAK2/JAK1 entry in assay [3] is given as “A (A means greater than or equal to 10)”.
As for `C[C@H](NC(=O)c1cc(F)c(N2CC(CC#N)(n3cc(-c4ncnc5[nH]ccc45)cn3)C2)cc1F)C(F)(F)F` [Example 28, 4-{3-(Cyanomethyl)-3-[4-(7H-pyrrolo[2,3-d]pyrimidin-4-yl)-1H-pyrazol-1-yl]azetidin-1-yl}-2,5-difluoro-N-[(1S)-2,2,2-trifluoro-1-methylethyl]benzamide], the half-inhibitory concentration (IC50) in assay [1] is at most 10 nM; in assay [2], under 10 nM. Moreover, the JAK2/JAK1 entry in assay [3] was “A (A means greater than or equal to 10)”.
In the case of `C[C@@H](NC(=O)c1cc(F)c(N2CC(CC#N)(n3cc(-c4ncnc5[nH]ccc45)cn3)C2)cc1F)C(F)(F)F` [Example 29, 4-{3-(Cyanomethyl)-3-[4-(7H-pyrrolo[2,3-d]pyrimidin-4-yl)-1H-pyrazol-1-yl]azetidin-1-yl}-2,5-difluoro-N-[(1R)-2,2,2-trifluoro-1-methylethyl]benzamide], the IC50 was at most 10 nM in assay [1] and under 10 nM in assay [2]. Further, the JAK2/JAK1 result in assay [3] was “A (A means greater than or equal to 10)”.
Consider `C[C@@H](NC(=O)c1cnc(N2CC(CC#N)(n3cc(-c4ncnc5[nH]ccc45)cn3)C2)cn1)C(F)(F)F` [Example 30, 5-{3-(Cyanomethyl)-3-[4-(7H-pyrrolo[2,3-d]pyrimidin-4-yl)-1H-pyrazol-1-yl]azetidin-1-yl}-N-[(1R)-2,2,2-trifluoro-1-methylethyl]pyrazine-2-carboxamide], for which the concentration for half-maximal inhibition (IC50) is 10 to 40 nM in assay [1] and under 10 nM in assay [2]. In addition, in assay [3], the JAK2/JAK1 entry was “A (A means greater than or equal to 10)”.
With `C[C@H](NC(=O)c1cnc(N2CC(CC#N)(n3cc(-c4ncnc5[nH]ccc45)cn3)C2)cn1)C(F)(F)F` [Example 31, 5-{3-(Cyanomethyl)-3-[4-(7H-pyrrolo[2,3-d]pyrimidin-4-yl)-1H-pyrazol-1-yl]azetidin-1-yl}-N-[(1S)-2,2,2-trifluoro-1-methylethyl]pyrazine-2-carboxamide], the IC50 is at most 10 nM in assay [1] and under 10 nM in assay [2]. Besides, the JAK2/JAK1 entry in assay [3] is on record as “A (A means greater than or equal to 10)”.
On to `N#CCC1(n2cc(-c3ncnc4[nH]ccc34)cn2)CN(c2cnc(C(=O)N[C@@H](C3CC3)C(F)(F)F)cn2)C1` [Example 32, 5-{3-(Cyanomethyl)-3-[4-(7H-pyrrolo[2,3-d]pyrimidin-4-yl)-1H-pyrazol-1-yl]azetidin-1-yl}-N-[(1S)-1-cyclopropyl-2,2,2-trifluoroethyl]pyrazine-2-carboxamide], for which the IC50 in assay [1] was at most 10 nM; in assay [2], under 10 nM. In addition, the JAK2/JAK1 result in assay [3] is “A (A means greater than or equal to 10)”.
For the compound `N#CCC1(n2cc(-c3ncnc4[nH]ccc34)cn2)CN(c2cnc(C(=O)NC3(C(F)(F)F)CC3)cn2)C1` [Example 33, 5-{3-(Cyanomethyl)-3-[4-(7H-pyrrolo[2,3-d]pyrimidin-4-yl)-1H-pyrazol-1-yl]azetidin-1-yl}-N-[1-(trifluoromethyl)cyclopropyl]pyrazine-2-carboxamide], the IC50 in assay [1] was 10 to 40 nM; in assay [2], under 10 nM. Further, the JAK2/JAK1 entry in assay [3] is given as “A (A means greater than or equal to 10)”.
For `C[C@H](NC(=O)c1cnc(N2CC(CC#N)(n3cc(-c4ccnc5[nH]ccc45)cn3)C2)cn1)C(F)(F)F` [Example 35, 5-{3-(Cyanomethyl)-3-[4-(1H-pyrrolo[2,3-b]pyridin-4-yl)-1H-pyrazol-1-yl]azetidin-1-yl}-N-[(1S)-2,2,2-trifluoro-1-methylethyl]pyrazine-2-carboxamide], in that order: 10 to 40 nM, under 10 nM and “A (A means greater than or equal to 10)”.
With `N#CCC1(n2cc(-c3ccnc4[nH]ccc34)cn2)CN(c2cnc(C(=O)NCC(F)(F)F)cn2)C1` [Example 36, 5-{3-(Cyanomethyl)-3-[4-(1H-pyrrolo[2,3-b]pyridin-4-yl)-1H-pyrazol-1-yl]azetidin-1-yl}-N-(2,2,2-trifluoroethyl)pyrazine-2-carboxamide], the IC50 is 10 to 40 nM in assay [1] and under 10 nM in assay [2]. Moreover, the JAK2/JAK1 result in assay [3] is “A (A means greater than or equal to 10)”.
Consider `N#CCC1(n2cc(-c3ncnc4[nH]ccc34)cn2)CN(c2cc(F)c(C(=O)NCC(F)F)cc2F)C1` [Example 37, 4-{3-(Cyanomethyl)-3-[4-(7H-pyrrolo[2,3-d]pyrimidin-4-yl)-1H-pyrazol-1-yl]azetidin-1-yl}-N-(2,2-difluoroethyl)-2,5-difluorobenzamide], for which the results for the IC50 in assay [1] and in assay [2] were at most 10 nM and under 10 nM, respectively. In assay [3], the JAK2/JAK1 entry is recorded as “A (A means greater than or equal to 10)”.
Regarding `N#CCC1(n2cc(-c3ncnc4[nH]ccc34)cn2)CN(c2ccc(C(=O)N[C@@H](C3CC3)C(F)(F)F)cc2)C1` [Example 38, 4-{3-(Cyanomethyl)-3-[4-(7H-pyrrolo[2,3-d]pyrimidin-4-yl)-1H-pyrazol-1-yl]azetidin-1-yl}-N-[(1S)-1-cyclopropyl-2,2,2-trifluoroethyl]benzamide], the values for the IC50 in assay [1] and in assay [2] were 10 to 40 nM and under 10 nM, respectively. In assay [3], the JAK2/JAK1 entry was “A (A means greater than or equal to 10)”.
With `C[C@@H](NC(=O)c1ccc(N2CC(CC#N)(n3cc(-c4ncnc5[nH]ccc45)cn3)C2)cc1F)C1CC1` [Example 39, 4-{3-(Cyanomethyl)-3-[4-(7H-pyrrolo[2,3-d]pyrimidin-4-yl)-1H-pyrazol-1-yl]azetidin-1-yl}-N-[(1R)-1-cyclopropylethyl]-2-fluorobenzamide], the values for the IC50 in assay [1] and in assay [2] were 10 to 40 nM and under 10 nM, respectively. Besides, the JAK2/JAK1 entry in assay [3] is recorded as “A (A means greater than or equal to 10)”.
With `N#CCC1(n2cc(-c3ccnc4[nH]ccc34)cn2)CN(c2ccc(C(=O)NC3(C(F)(F)F)CC3)nc2)C1` [Example 40, 5-{3-(Cyanomethyl)-3-[4-(1H-pyrrolo[2,3-b]pyridin-4-yl)-1H-pyrazol-1-yl]azetidin-1-yl}-N-[1-(trifluoromethyl)cyclopropyl]pyridine-2-carboxamide], the IC50 was 10 to 40 nM in assay [1] and under 10 nM in assay [2]. Further, in assay [3], the JAK2/JAK1 entry is recorded as “A (A means greater than or equal to 10)”.
For `C[C@H](NC(=O)c1cnc(N2CC(CC#N)(n3cc(-c4ccnc5[nH]ccc45)cn3)C2)cn1)C1CC1` [Example 41, 5-{3-(Cyanomethyl)-3-[4-(1H-pyrrolo[2,3-b]pyridin-4-yl)-1H-pyrazol-1-yl]azetidin-1-yl}-N-[(1S)-1-cyclopropylethyl]pyrazine-2-carboxamide], in that order: 10 to 40 nM, under 10 nM and “A (A means greater than or equal to 10)”.
The matching figures for `N#CCC1(n2cc(-c3ccnc4[nH]ccc34)cn2)CN(c2cnc(C(=O)N[C@@H](C3CC3)C(F)(F)F)cn2)C1` [Example 42, 5-{3-(Cyanomethyl)-3-[4-(1H-pyrrolo[2,3-b]pyridin-4-yl)-1H-pyrazol-1-yl]azetidin-1-yl}-N-[(1S)-1-cyclopropyl-2,2,2-trifluoroethyl]pyrazine-2-carboxamide]: 10 to 40 nM, under 10 nM and “A (A means greater than or equal to 10)”.
